Legend:
AKT-mTOR-p70S6K pathway = assay: Downstream signaling in macrophages after drug washout and MCSF exposure (Western blot); type: cell-based; details: 4 hours drug, washout 7 h or 48 h, MCSF 2 h
B16/F10 melanoma = B16/F10 melanoma tumor growth; type: in vivo, mice; details: 45 mg/kg on day 0, day 4 and day 8
From the text: FIG. 6. Effect of BLN101 on tumor growth inhibition. […] To validate the therapeutic efficacy of AK750, we randomly sorted mice bearing B16/F10 melanoma into three groups and treated each group with one of the following: blank vehicle (control); AK750; and BLZ945. The mice injected with vehicle formed large tumors by Day 10 (the day of first injection being Day 0), and consequently were killed. The animals in the other groups were also killed at the same time point to evaluate the effect of the treatments on tumor pathology. […] Changes in body weight were within the acceptable limits.
Activity Studies of Compound of Formula I • Efficacy of BLN101 vs BLZ945 on the ability to inhibit CSF1R in vitro is studied. RAW264.7 cells are treated with BLZ945 (67 nM) or BLN101 (67 nM) for different time points, at the end of which the cells were exposed to CSF1 (10 ng/ml) for 20 min. The cells were then lysed and analyzed for phosphorylated CSF1R levels. […] Efficacy of BLN101 (in formulation AK750) vs BLZ945 on increase in iNOS expression in vitro is studied. It is observed that exposure to Tumor Conditioned Media over 24 h decreases INOS levels. […] At different time-points, the cells are harvested and analyzed the population for M1 (MHCII+, CD86+, CD80+) or M2 (CD206+) markers using fluorescence activated cell sorting (FIG. 5d). […]

SMILES: CNC(=O)c1cc(Oc2ccc3nc(N[C@@H]4CCCC[C@H]4O)sc3c2)ccn1 [BLZ-945]
- AKT-mTOR-p70S6K downstream signaling (AKT-mTOR-p70S6K pathway): not by BLZ945 and PLX3397
- tumor growth (B16/F10 melanoma): decreased tumor growth compared with vehicle-treated animals

Reference: patent publication US10736968B2, “Cellular signalling inhibitors, their formulations and methods thereof” (INVICTUS ONCOLOGY PVT. LTD., priority 2016, dated 2020)
